The text below walks through data of patent publication US20110046105A1, “Heterocycle-substituted imidazolidine-2,4-diones, process for preparation thereof, medicaments comprising them and use thereof” (SANOFI-AVENTIS, priority 2008, published 2011).

For orientation: IC50 means the concentration needed to halve the response being measured. By Ki is commonly meant the dissociation constant of the complex between target and ligand, obtained from inhibition or displacement. Higher therefore signals weaker binding.

Assay [1] deals with T1, hCB1R (Homo sapiens, UniProt P21554). The assay can be described thus: In vitro functional assay with recombinant cells (FLIPR), cannabinoid 1 receptor. It is filed as cell-based. The note with it: recombinant HEK293 cells expressing CB1 and G-protein Galpha16; intracellular Ca2+ change against reference agonist. Also on record: expressed in transfected cells; host or cells: HEK293. How it is done: (§1) Function-testing assays were performed by means of the FLIPR technique (“Fluorometric Imaging Plate Reader”, Molecular Devices Corp.).
T1 sequence (P21554 whole entry): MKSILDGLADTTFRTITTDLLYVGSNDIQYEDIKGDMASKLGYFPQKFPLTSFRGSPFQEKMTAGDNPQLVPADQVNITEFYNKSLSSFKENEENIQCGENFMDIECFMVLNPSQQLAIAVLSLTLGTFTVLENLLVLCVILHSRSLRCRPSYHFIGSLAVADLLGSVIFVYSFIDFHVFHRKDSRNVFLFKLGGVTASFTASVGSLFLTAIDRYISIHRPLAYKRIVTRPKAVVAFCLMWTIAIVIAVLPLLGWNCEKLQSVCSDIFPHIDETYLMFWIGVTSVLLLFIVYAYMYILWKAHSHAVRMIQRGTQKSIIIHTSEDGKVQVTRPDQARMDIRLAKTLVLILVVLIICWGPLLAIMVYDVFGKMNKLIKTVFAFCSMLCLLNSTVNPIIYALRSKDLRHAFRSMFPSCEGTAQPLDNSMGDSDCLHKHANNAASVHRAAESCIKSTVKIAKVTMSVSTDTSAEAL
(§2) To this end, ligand-induced changes in the intracellular concentration of Ca^2+ in recombinant HEK293 cells, which expressed both a cannabinoid receptor (CB1 or CB2) and G-protein Galpha16, were determined. For the studies, cells were sown into 96-well microtiter plates (60 000 cells/well) and left to grow overnight. The medium was removed and the cells were incubated in buffer which contained the fluorescent dye Fluo-4. After this loading with dye, the cells were washed, test substance was added dissolved in buffer, the mixture was incubated for 20 minutes, a known cannabinoid receptor agonist as a reference agonist was added in buffer and, finally, the changes in the intracellular Ca^2+ concentration were measured in the FLIPR unit.
Results were presented as the percentage change relative to the control (0%: analogous experiment without test substance and without reference agonist, i.e. only with buffer; 100%: analogous experiment without test substance, but with reference agonist in excess), and used to calculate dose/action curves, and IC50 values were determined.
The values of the functional assay compared to the cannabinoid 1 receptor including illustrative selectivities compared to the cannabinoid 2 receptor can be taken from table 1 which follows.

Assay [2] has as its target T1, hCB1R. The experiment in a line: Binding to the CB1 receptor ([3H]-SR141716A displacement). Also on record: expressed in transfected cells; host or cells: CHO-K1. The settings on record: CHO-K1/cannabinoid CB1 protein; ligand [3H]-SR141716A 0.5 nM; Ki from IC50 by Cheng-Prusoff. How it is done:
Test compounds: The compounds (3 μl, 10 mM, 100% DMSO), pipetted into 96-well PP microtiter plates, were diluted with 27 μl of 100% DMSO (dimethyl sulfoxide). Proceeding from this solution, further 3-fold dilution steps were undertaken by transferring 10 μl in each case to a new PP microtiter plate and adding a further 20 μl of 100% DMSO. In each case 6 μl of these solutions were transferred into new 96-well PP microtiter plates and made up with 144 μl of assay buffer. The end concentrations ranged from 10 μM to 0.005 μM.
Negative control: AM 251, dissolved in assay buffer with 1% DMSO, was added to the dilution series in the microtiter plates as a control. The end concentration was 1 μM.
Blank control: assay buffer with 1% DMSO was added to the dilution series of the microtiter plates as a blank control.
High control: ^3H binding without addition of the compound
Low control: ^3H binding in the presence of 1 μM AM 251
The values were calculated using the corrected raw data.
The values reported were obtained as average values of a double determination. The IC50 values were calculated from the measurements with the program Xlfit, formula 205. Ki values were obtained from the IC50 and Kd values utilizing the Cheng-Prusoff equation: […]
Literature: Cheng, Y.-C., and Prusoff, W. H. (1973) Biochem. Pharmacol 22, 3099-3108

Another assay addresses T2, hCB2R (Homo sapiens, UniProt P34972).
T2 construct: expressed in transfected cells; host or cells: HEK293
The assay can be described thus: In vitro functional assay with recombinant cells (FLIPR), cannabinoid 2 receptor. The class given is cell-based. The settings on record: recombinant HEK293 cells expressing CB2 and G-protein Galpha16; intracellular Ca2+ change against reference agonist. How it is done:
as §1, §2
Results were presented as the percentage change relative to the control (0%: analogous experiment without test substance and without reference agonist, i.e. only with buffer; 100%: analogous experiment without test substance, but with reference agonist in excess), and used to calculate dose/action curves, and IC50 values were determined. […]

Assay [3] has as its target T3, cannabinoid CB1 receptor (CB1) (Mus musculus, UniProt P47746).
T3 construct: from tissue; host or cells: whole animal (female NMRI mice)
The experiment in a line: Antagonization of CB1-mediated hypothermia. The settings on record: female NMRI mice; 1.25 mg/kg intraperitoneally; within 30 min. It is filed as in vivo. As for the experimental part:
The test is used to measure the potency of cannabinoid CB1 receptor (CB1) antagonists. What is measured is the extent to which the CB1 antagonists to be tested are capable of preventing or of antagonizing hypothermia induced by a CB1 agonist.
Female NMRI mice, 25-35 g in weight, are used. The mice are accustomed to the housing conditions for at least one week.
At time 0 min, the animals are treated orally, intravenously or intraperitoneally with the CB1 antagonist to be tested. 30 min later, the CB1 agonist CP55.940, 1.25 mg/kg, is administered to the mice intraperitoneally. This brings about a fall in the body temperature by 5-6° C. within 30 min. The body temperature is measured rectally for the first time 30 min before the test substance administration and then every 30 min after this administration, if appropriate immediately before a substance administration, over 4 hours.
The potency of the test substances is reported as the percentage decrease in the area under the temperature-time curve which is formed firstly by the average basal temperature, and secondly by the temperature-time curve, of the animals treated exclusively with the CB1 antagonist.

T3 sequence (P47746 whole entry): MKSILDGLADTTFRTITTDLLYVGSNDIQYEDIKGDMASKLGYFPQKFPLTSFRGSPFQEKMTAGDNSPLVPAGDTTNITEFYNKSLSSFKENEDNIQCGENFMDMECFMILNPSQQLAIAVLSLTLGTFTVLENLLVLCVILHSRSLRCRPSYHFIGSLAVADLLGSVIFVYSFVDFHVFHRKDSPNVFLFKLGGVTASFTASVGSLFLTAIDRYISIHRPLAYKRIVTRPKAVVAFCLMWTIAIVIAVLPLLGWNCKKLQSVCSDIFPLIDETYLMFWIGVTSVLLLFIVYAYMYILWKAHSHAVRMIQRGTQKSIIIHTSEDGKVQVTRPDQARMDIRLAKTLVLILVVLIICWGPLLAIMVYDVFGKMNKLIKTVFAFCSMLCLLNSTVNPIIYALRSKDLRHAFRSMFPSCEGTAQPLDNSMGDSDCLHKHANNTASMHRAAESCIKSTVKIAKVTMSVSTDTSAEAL
T2 sequence (P34972 whole entry): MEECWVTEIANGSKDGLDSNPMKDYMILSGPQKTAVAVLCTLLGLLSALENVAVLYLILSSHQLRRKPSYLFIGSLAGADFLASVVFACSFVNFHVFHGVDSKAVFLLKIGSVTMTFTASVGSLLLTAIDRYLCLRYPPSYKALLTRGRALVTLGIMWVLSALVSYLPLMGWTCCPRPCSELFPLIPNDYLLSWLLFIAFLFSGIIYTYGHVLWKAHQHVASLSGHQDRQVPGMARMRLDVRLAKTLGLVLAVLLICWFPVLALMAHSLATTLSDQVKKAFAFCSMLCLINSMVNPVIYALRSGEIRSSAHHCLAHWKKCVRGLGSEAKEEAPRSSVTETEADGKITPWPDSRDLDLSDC

With `CC1(C)C(=O)N(c2ccc(F)c(C(F)(F)F)c2)C(=O)N1Cc1ccc(F)cc1Nc1ccc(-n2cnc3ccccc32)cc1` [Example 5, 1-[2-(4-benzimidazol-1-ylphenylamino)-4-fluorobenzyl]-3-(4-fluoro-3-trifluoromethylphenyl)-5,5-dimethylimidazolidine-2,4-dione], the IC50 at hCB1R [1] was found to be 6 nM. For the same compound, at hCB1R [2], the Ki is 4 nM. `CC1(C)C(=O)N(c2ccc(F)c(C(F)(F)F)c2)C(=O)N1Cc1ccc(F)cc1Nc1ccc(N2CCCC2=O)cc1` [Example 4, 1-{4-fluoro-2-[4-(2-oxopyrrolidin-1-yl)phenylamino]benzyl}-3-(4-fluoro-3-trifluoromethylphenyl)-5,5-dimethylimidazolidine-2,4-dione] registered an inhibition constant (Ki) at hCB1R [2] of 103 nM. This counts as sub-micromolar. Still for that read-out and setting: then `CC1(C)C(=O)N(c2ccc(C#N)c(C(F)(F)F)c2)C(=O)N1Cc1ccccc1Nc1ccc(CN2CCNCC2=O)cc1` [Example 1, 4-(4,4-dimethyl-2,5-dioxo-3-{2-[4-(2-oxopiperazin-1-ylmethyl)phenylamino]-benzyl}imidazolidin-1-yl)-2-trifluoromethylbenzonitrile], with 34 nM. Take `CC1(C)C(=O)N(c2ccc(F)c(C(F)(F)F)c2)C(=O)N1Cc1ccc(F)cc1Nc1ccc(C2NC(=O)NC2=O)cc1` (centres unmarked) [Example 15, 1-{2-[4-(2,5-dioxoimidazolidin-4-yl)phenylamino]-4-fluorobenzyl}-3-(4-fluoro-3-trifluoromethylphenyl)-5,5-dimethylimidazolidine-2,4-dione]: the concentration for half-maximal inhibition (IC50) at hCB1R [1] was 60 nM. At hCB1R [2], `COC(=O)C1CC(=O)N(c2ccc(Nc3cc(F)ccc3CN3C(=O)N(c4ccc(F)c(C(F)(F)F)c4)C(=O)C3(C)C)cc2)C1` (centres unmarked) [Example 6, methyl 1-(4-{5-fluoro-2-[3-(4-fluoro-3-trifluoromethylphenyl)-5,5-dimethyl-2,4-dioxoimidazolidin-1-ylmethyl]phenylamino}phenyl)-5-oxopyrrolidine-3-carboxylate] returned an inhibitory constant (Ki) of 40 nM. In the case of `COc1ccc(Nc2ccc(Nc3cc(F)ccc3CN3C(=O)N(c4ccc(F)c(C(F)(F)F)c4)C(=O)C3(C)C)cc2)nn1` [Example 8, {4-fluoro-2-[4-(6-methoxypyridazin-3-ylamino)phenylamino]benzyl}-3-(4-fluoro-3-trifluoro-methylphenyl)-5,5-dimethylimidazolidine-2,4-dione], at hCB1R [1], the IC50 came out at 24 nM. The compound further showed a Ki at hCB1R [2] of 10 nM. `CC1(C)C(=O)N(c2ccc(F)c(C(F)(F)F)c2)C(=O)N1Cc1ccc(F)cc1Nc1ccc(N2CCNCC2=O)cc1` [Example 13, 1-{4-fluoro-2-[4-(2-oxopiperazin-1-yl)phenylamino]benzyl}-3-(4-fluoro-3-trifluoromethylphenyl)-5,5-dimethylimidazolidine-2,4-dione]: the 50% inhibitory concentration (IC50) on hCB1R [1] worked out at 125 nM. As to `CC1(C)C(=O)N(c2ccc(F)c(C(F)(F)F)c2)C(=O)N1Cc1ccccc1Nc1ccc(-c2nnn[nH]2)cc1` [Example 2, 3-(4-fluoro-3-trifluoromethylphenyl)-5,5-dimethyl-1-{2-[4-(1H-tetrazol-5-yl)phenylamino]benzyl}imidazolidine-2,4-dione], the IC50 is greater than 10000 nM on hCB2R and 205 nM at hCB1R [1]. Besides, at hCB1R [2], the inhibitory constant (Ki) was 108 nM.

With `CC1(C)C(=O)N(c2ccc(F)c(C(F)(F)F)c2)C(=O)N1Cc1ccc(F)cc1Nc1ccc(Nc2ccc(Cl)nn2)cc1` [Example 10, 1-{2-[4-(6-chloropyridazin-3-ylamino)phenylamino]-4-fluorobenzyl}-3-(4-fluoro-3-trifluoromethylphenyl)-5,5-dimethyl-imidazolidine-2,4-dione], the IC50 at hCB1R [1] amounted to 34 nM. Also, on hCB1R [2], the affinity corresponds to a Ki of 7 nM.

For `CC1(C)C(=O)N(c2ccc(F)c(C(F)(F)F)c2)C(=O)N1Cc1ccc(F)cc1Nc1ccc(N2CCNC2=O)cc1` [Example 16, 1-{4-fluoro-2-[4-(2-oxoimidazolidin-1-yl)phenylamino]benzyl}-3-(4-fluoro-3-trifluoromethylphenyl)-5,5-dimethylimidazolidine-2,4-dione], at hCB1R [1], the half-inhibitory concentration (IC50) is 23 nM. Consider `CCCCCCC(C)(C)c1ccc([C@@H]2C[C@H](O)CC[C@H]2CCCO)c(O)c1` [CP55.940], for which the “fall in the body temperature” value in assay [3] is 5-6 °C. In the case of `CCOc1ccc(Nc2ccc(Nc3cc(F)ccc3CN3C(=O)N(c4ccc(F)c(C(F)(F)F)c4)C(=O)C3(C)C)cc2)nn1` [Example 7, 1-{2-[4-(6-ethoxypyridazin-3-ylamino)phenylamino]-4-fluorobenzyl}-3-(4-fluoro-3-trifluoromethylphenyl)-5,5-dimethyl-imidazolidine-2,4-dione], the half-maximal inhibitory concentration (IC50) at hCB1R [1] stood at 32 nM. The compound also had an inhibitory constant (Ki) at hCB1R [2] of 18 nM. As to `CC1(C)C(=O)N(c2ccc(F)c(C(F)(F)F)c2)C(=O)N1Cc1ccc(F)cc1Nc1ccc(N2CCC(O)CC2)cc1` [Example 14, 1-{4-fluoro-2-[4-(4-hydroxypiperidin-1-yl)phenylamino]benzyl}-3-(4-fluoro-3-trifluoromethylphenyl)-5,5-dimethylimidazolidine-2,4-dione], on hCB1R [1], the IC50 was found to be 9 nM. Same read-out and setting: then `CC1(C)C(=O)N(c2ccc(F)c(C(F)(F)F)c2)C(=O)N1Cc1ccc(F)cc1Nc1ccc(OC2CCOCC2)cc1` [Example 18, 1-{4-fluoro-2-[4-(tetrahydropyran-4-yloxy)phenylamino]benzyl}-3-(4-fluoro-3-trifluoromethylphenyl)-5,5-dimethylimidazolidine-2,4-dione], with 93 nM.
